According to patent US20040048747A1, “Product formulation and method of its application for increasing the efficiency of systemic herbicides” (priority 2000, published 2004):

Legend:
Format in all cases: in vivo
[1] = system: dandelion (Taraxacum cordátum Palmgr.); assay: Greenhouse pot spray test, selected formates with selected systemic herbicides (Example 3), dandelion; conditions: for desiccation of the leaves / damage (necrosis): formates 3000 ml (g) per decar, 6, 14 and 21 days after spraying
Protocol: Potassium diformate in a 50% water/volume solution (coded K-diform in the enclosed graphs). Potassium formate (50% w/v) (coded K-form in the enclosed graphs). Solid calcium formate solid was dissolved in water and coded Ca-form in the enclosed graphs. Dose rates applied were: 0 and 3000 ml (g) per decar (10^3 m^2).
“Roundup Bio” (360 gram/litre glyphosate), “Arsenal 250” (250 gram/litre imazapyr) and “Titus” (250 gram/kg rimsulfuron). The herbicides were applied at dose rates: 10%-40% of full rate:
Adjuvant: 0.1% wetting agent (“DP-spredemiddel”)
The formates, herbicides and adjuvants were mixed before spraying and applied at a calculated spray volume of 50 litre per decar (10^3 m^2). Seven pots were given each treatment.
The investigations were done on dandelion (Taraxacum cordátum Palmgr.):
The dandelion seeds were sown June 20 and transplanted to 13 cm plastic pots, one plant per pot. The plants were raised in a greenhouse. The spraying was carried out August 1 and the plants kept in greenhouse until harvest. Greenhouse conditions: 20-25° C. in 16 hrs, 14° C. in 8 hrs. Day length: 16 hrs artificial light.
Assessments of damage (necrosis): 6, 14 and 21 days after treatment (DAT). Regrowth and fresh weight were assessed 21 days after spraying.

[2] = system: Dandelion (Taráxacum cordátum); assay: Greenhouse pot spray test, potassium diformate and glyphosate combinations (Example 1), dandelion; conditions: glyphosate alone, compared with the combination
Source text: (§1) The aim of this experiment was to investigate if a small dose of glyphosate, a foliage applied systemic herbicide, could extend the herbicide effect of potassium diformate. This is in particular important in perennial weeds, but also to have a complete kill of annual weeds.
(§2) Control of annual weeds will be essential in garden paths, roads, roadsides and other areas covered with gravel, bricks or flag stones. The weed must be totally killed since there is no competition from crop plants like in crop use situations. The aim of the experiment in greenhouse was to find methods to have optimal herbicide effect of K-diformate on different weed species and rape, which served as a model weed.
(§3) Seeds were sown in trays, and 2 seedlings were transplanted to 12 cm pots. The soil used was a mixture of 84% sphagnum, 10% sand and 6% clay. The pH was 5.8 and the soil was amended with balanced nutrients.
(§4) The temperature was set to 20° C. for 16 hours, 14° C. for 8 hours, but it varied ±3° C. Light period followed the natural day lengths, but artificial light was supplied 16 hours per day.
(§5) A wetting agent (0.1%) was used in order to secure complete contact with the plants to be treated. […]
(§6) Damage or injury of the plants was visually assessed after the following scale: […]

[3] = system: Poa annua; assay: Greenhouse pot spray test, potassium diformate and glyphosate combinations (Example 1), Poa annua; conditions: glyphosate alone, compared with the combination
Source text: as §1, §2, §3, §4, §5, §6

| Compound | desiccation of the leaves / damage (necrosis) [1] | herbicide effect (speed and efficiency) [2] | herbicide effect (speed and efficiency) [3] | regrowth after mixing herbicide with formate ([1]; 21 days after spraying, lowest dose rates of Roundup and Titus, compared between formates) |
| --- | --- | --- | --- | --- |
| O=C[O-].O=C[O-].[Ca+2] [Ca-formate, calcium formate] | even less effective than K-formate | – | – | – |
| O=C[O-].[K+] [K-formate, Potassium formate] | less effective | – | – | – |
| O=C(O)CNCP(=O)(O)O [glyphosate] | – | much slower and very much less efficient | much slower and very much less efficient | – |
| O=CO.O=C[O-].[K+] [potassium diformate] | desiccated the leaves quickly | – | – | higher after mixing with K-diformate than mixing with Ca- or K-formate |
